Article PMC6151529, “Design, Synthesis and Biological Evaluation of N,N-Substituted Amine Derivatives as Cholesteryl Ester Transfer Protein Inhibitors” (Molecules : A Journal of Synthetic Chemistry and Natural …, 2017)

Assays:
LDL-C levels = conditions: clinical, cited from earlier work
HDL-C levels = conditions: clinical, cited from earlier work
CETP = target: T1, CETP (Homo sapiens, UniProt P11597); assay: CETP inhibitory activity, BODIPY-CE fluorescence assay (CETP RP Activity Assay Kit); format: biochemical; conditions: for IC50: read-out: IC50 (CETP inhibition); for CETP inhibition (in words): BODIPY-CE fluorescence assay
T1 construct: purchased Roar, New York, NY, USA RB-RPAK
T1 sequence (P11597 18-493): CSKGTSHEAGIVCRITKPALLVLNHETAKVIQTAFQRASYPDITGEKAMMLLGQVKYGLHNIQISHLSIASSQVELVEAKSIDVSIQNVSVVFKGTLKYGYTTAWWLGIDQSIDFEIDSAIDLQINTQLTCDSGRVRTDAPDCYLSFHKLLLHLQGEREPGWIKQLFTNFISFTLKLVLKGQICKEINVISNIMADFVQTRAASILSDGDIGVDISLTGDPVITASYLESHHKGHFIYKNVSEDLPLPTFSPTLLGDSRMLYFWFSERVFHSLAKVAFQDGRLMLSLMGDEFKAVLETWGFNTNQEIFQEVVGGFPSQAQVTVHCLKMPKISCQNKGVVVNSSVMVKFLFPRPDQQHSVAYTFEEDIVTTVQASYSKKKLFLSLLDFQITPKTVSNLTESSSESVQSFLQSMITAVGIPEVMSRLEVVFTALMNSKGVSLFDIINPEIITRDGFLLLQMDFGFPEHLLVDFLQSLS
Protocol: All tested compounds were dissolved in 100% DMSO, making sure the compound was dissolved totally. The solution was vibrated hard on an oscillator for more than 30 s and then stored in a nitrogen cabinet. The stock solutions (10 mM) were diluted with DMSO for an 8-point titration (1:5 serial dilutions) in a 96-well dilution plate. […] Compounds were tested at eight concentrations, and the fluorescence intensity were measured using a fluorometer (ExEm = 465/535 nm). The IC50 was determined from a curve fit of the data with each concentration tested three times.

IC50 (CETP) | Structure (SMILES) | also measured
– | COc1cc(F)c(C(C)C)cc1-c1ccc(C(F)(F)F)cc1CN1C(=O)O[C@H](c2cc(C(F)(F)F)cc(C(F)(F)F)c2)[C@@H]1C [Anacetrapib] | decrease of LDL-C levels (LDL-C levels; printed as 'to'): 40%; raise of HDL-C levels (HDL-C levels; printed as 'to'): 130%
2.84 ± 0.04 µM | COc1ccc(C(C)C)cc1C1=C(CN(Cc2cc(C(F)(F)F)cc(C(F)(F)F)c2)c2nn[nH]n2)CC(C)(C)CC1 [Compound 12, N-(3,5-Bis(trifluoromethyl)benzyl)-N-((2-(5-isopropyl-2-methoxyphenyl)-5,5-dimethylcyclohex-1-enyl)-methyl)-2H-tetrazol-5-amine] | –
> 50 µM | COC(=O)Cn1nnc(N(CC2=C(c3cc(C(C)C)ccc3OC)CCC(C)(C)C2)Cc2cc(C(F)(F)F)cc(C(F)(F)F)c2)n1 [Compound 13] | –
> 50 µM | CCOC(=O)CCCn1nnc(N(CC2=C(c3cc(C(C)C)ccc3OC)CCC(C)(C)C2)Cc2cc(C(F)(F)F)cc(C(F)(F)F)c2)n1 [Compound 14, N-(3,5-Bis(trifluoromethyl)benzyl)-N-((2-(5-isopropyl-2-methoxyphenyl)-5,5-dimethylcyclohex-1-enyl)-methyl)-2H-tetrazol-5-amine-2-butyric acid ethyl ester] | –
1.92 ± 0.1 µM | COc1ccc(C(C)C)cc1C1=C(CN(Cc2cc(C(F)(F)F)cc(C(F)(F)F)c2)c2nnn(CCN)n2)CC(C)(C)CC1 [Compound 15, 2-(2-Aminoethyl)-N-(3,5-Bis(trifluoromethyl)benzyl)-N-((2-(5-isopropyl-2-methoxyphenyl)-5,5-dimethyl-cyclohex-1-enyl)methyl)-2H-tetrazol-5-amine] | –
1.2 ± 0.01 µM | COc1ccc(C(C)C)cc1C1=C(CN(Cc2cc(C(F)(F)F)cc(C(F)(F)F)c2)c2nnn(CCS(C)(=O)=O)n2)CC(C)(C)CC1 [Compound 16, N-(3,5-Bis(trifluoromethyl)benzyl)-N-((2-(5-isopropyl-2-methoxyphenyl)-5,5-dimethylcyclohex-1-enyl)-methyl)-2-(2-(methylsulfonyl)ethyl)-2H-tetrazol-5-amine] | –
1.6 ± 0.02 µM | COc1ccc(C(C)C)cc1C1=C(CN(Cc2cc(C(F)(F)F)cc(C(F)(F)F)c2)c2nnn(CCCC(=O)O)n2)CC(C)(C)CC1 [Compound 18, N-(3,5-Bis(trifluoromethyl)benzyl)-N-((2-(5-isopropyl-2-methoxyphenyl)-5,5-dimethylcyclohex-1-enyl)-methyl)-2H-tetrazol-5-amine-2-butyric acid] | –
0.73 ± 0.09 µM | COc1ccc(C(C)C)cc1C1=C(CN(Cc2cc(C(F)(F)F)cc(C(F)(F)F)c2)c2nnn(CCO)n2)CC(C)(C)CC1 [Compound 19, N-(3,5-Bis(trifluoromethyl)benzyl)-N-((2-(5-isopropyl-2-methoxyphenyl)-5,5-dimethylcyclohex-1-enyl)-methyl)-2H-tetrazol-5-amine-2-ethyl alcohol] | –
5.76 ± 0.03 µM | COc1ccc(C(C)C)cc1C1=C(CN(Cc2cc(C(F)(F)F)cc(C(F)(F)F)c2)c2nnn(CCCCO)n2)CC(C)(C)CC1 [Compound 20] | –
20.06 ± 0.12 µM | COc1ccc(C(C)C)cc1C1=C(CN(Cc2cc(C(F)(F)F)cc(C(F)(F)F)c2)c2nnn(CC(N)=O)n2)CC(C)(C)CC1 [Compound 21, 2-(5-((3,5-Bis(trifluoromethyl)benzyl)((2-(5-isopropyl-2-methoxyphenyl)-5,5-dimethylcyclohex-1-enyl)-methyl)amino)-2H-tetrazol-2-yl)acetamide] | –
0.72 ± 0.06 µM | COc1ccc(C(C)C)cc1C1=C(CN(Cc2cc(C(F)(F)F)cc(C(F)(F)F)c2)c2noc(C)n2)CC(C)(C)CC1 [Compound 22, N-(3,5-Bis(trifluoromethyl)benzyl)-N-((2-(5-isopropyl-2-methoxyphenyl)-5,5-dimethylcyclohex-1-enyl)-methyl)-5-methyl-1,2,4-oxadiazol-3-amine] | –
> 50 µM | COc1ccc(C(C)C)cc1C1=C(CN(Cc2cc(C(F)(F)F)cc(C(F)(F)F)c2)C2CCN(CCO)CC2)CC(C)(C)CC1 [Compound 32, N-(3,5-Bis(trifluoromethyl)benzyl)-N-((2-(5-isopropyl-2-methoxyphenyl)-5,5-dimethylcyclohex-1-enyl)-methyl)piperidin-4-amine-1-ethyl alcohol] | –
> 50 µM | COc1ccc(C(C)C)cc1C1=C(CN(Cc2cc(C(F)(F)F)cc(C(F)(F)F)c2)C2CCN(CC(=O)O)CC2)CC(C)(C)CC1 [Compound 33, N-(3,5-Bis(trifluoromethyl)benzyl)-N-((2-(5-isopropyl-2-methoxyphenyl)-5,5-dimethylcyclohex-1-enyl)-methyl)piperidin-4-amine-1-acetic acid] | –
> 50 µM | COc1ccc(C(C)C)cc1C1=C(CN(Cc2cc(C(F)(F)F)cc(C(F)(F)F)c2)C2CCN(C(=O)OC3CCOCC3)CC2)CC(C)(C)CC1 [Compound 34, N-(3,5-Bis(trifluoromethyl)benzyl)-N-((2-(5-isopropyl-2-methoxyphenyl)-5,5-dimethylcyclohex-1-enyl)-methyl)piperidin-4-amine-1-methanoic acid tetrahydro-2H-pyran-4-ol ester] | –
> 50 µM | CCOC(=O)N1CC(N(CC2=C(c3cc(C(C)C)ccc3OC)CCC(C)(C)C2)Cc2cc(C(F)(F)F)cc(C(F)(F)F)c2)C1 [Compound 35, N-(3,5-Bis(trifluoromethyl)benzyl)-N-((5′-isopropyl-2′-methoxy-4,4-dimethyl-3,4,5,6-tetrahydro-[1,1′-biphenyl]-2-yl)methyl)azetidin-3-amine-1-methanoic acid ethyl ester] | –
> 50 µM | COc1ccc(C(C)C)cc1C1=C(CN(Cc2cc(C(F)(F)F)cc(C(F)(F)F)c2)C2CN(C(=O)OC(C)C)C2)CC(C)(C)CC1 [Compound 36, N-(3,5-Bis(trifluoromethyl)benzyl)-N-((5′-isopropyl-2′-methoxy-4,4-dimethyl-3,4,5,6-tetrahydro-[1,1′-biphenyl]-2-yl)methyl)azetidin-3-amine-1-methanoic acid isopropyl ester] | –
> 50 µM | COc1ccc(C(C)C)cc1C1=C(CN(Cc2cc(C(F)(F)F)cc(C(F)(F)F)c2)C2CN(C(=O)OC3CCOCC3)C2)CC(C)(C)CC1 [Compound 37, N-(3,5-Bis(trifluoromethyl)benzyl)-N-((5′-isopropyl-2′-methoxy-4,4-dimethyl-3,4,5,6-tetrahydro-[1,1′-biphenyl]-2-yl)methyl)azetidin-3-amine-1-methanoic acid tetrahydro-2H-pyran-4-ol ester] | –
0.81 ± 0.03 µM | COc1ccc(C(C)C)cc1C1=C(CN(Cc2cc(C(F)(F)F)cc(C(F)(F)F)c2)c2nnn(C)n2)CC(C)(C)CC1 [Compound 40, N-(3,5-Bis(trifluoromethyl)benzyl)-N-((2-(5-isopropyl-2-methoxyphenyl)-5,5-dimethylcyclohex-1-enyl)-methyl)-2-methyl-2H-tetrazol-5-amine] | –
10.05 ± 0.06 µM | COc1ccc(C(C)C)cc1C1=C(CN(Cc2cccc(C(F)(F)F)c2)c2nnn(C)n2)CC(C)(C)CC1 [Compound 41, N-((2-(5-Isopropyl-2-methoxyphenyl)-5,5-dimethylcyclohex-1-enyl)methyl)-2-methyl-N-(3-(trifluoromethyl)-benzyl)-2H-tetrazol-5-amine] | –
> 50 µM | COc1ccc(C(C)C)cc1C1=C(CN(Cc2ccc(F)cc2)c2nnn(C)n2)CC(C)(C)CC1 [Compound 42, N-(4-Fluorobenzyl)-N-((2-(5-isopropyl-2-methoxyphenyl)-5,5-dimethylcyclohex-1-enyl)methyl)-2-methyl-2H-tetrazol-5-amine] | CETP inhibition (in words) (CETP): no CETP inhibition
> 50 µM | COc1ccc(C(C)C)cc1C1=C(CN(Cc2ccc(C(F)(F)F)cc2)c2nnn(C)n2)CC(C)(C)CC1 [Compound 43, N-((2-(5-Isopropyl-2-methoxyphenyl)-5,5-dimethylcyclohex-1-enyl)methyl)-2-methyl-N-(4-(trifluoromethyl)-benzyl)-2H-tetrazol-5-amine] | CETP inhibition (in words) (CETP): no CETP inhibition
> 50 µM | COc1ccc(C(C)C)cc1C1=C(CN(Cc2ccc(OC(F)(F)F)cc2)c2nnn(C)n2)CC(C)(C)CC1 [Compound 44, N-((2-(5-Isopropyl-2-methoxyphenyl)-5,5-dimethylcyclohex-1-enyl)methyl)-2-methyl-N-(4-(trifluoro-methoxy)benzyl)-2H-tetrazol-5-amine] | CETP inhibition (in words) (CETP): no CETP inhibition
– | CCC(CC)CC1(C(=O)Nc2ccccc2SC(=O)C(C)C)CCCCC1 [Dalcetrapib] | effect on LDL-C levels (LDL-C levels): minimal effect; elevation of HDL-C levels (HDL-C levels): up to 30%
– | Cc1cc(C)c2c(c1)[C@@H](N(Cc1cc(C(F)(F)F)cc(C(F)(F)F)c1)c1nnn(C)n1)CCCN2C[C@H]1CC[C@H](C(=O)O)CC1 [Evacetrapib] | decrease of LDL-C (LDL-C levels): up to 36%; raising of HDL-C levels (HDL-C levels): more than 129%
